Reference: PubChem BioAssay AID252 (DTP/NCI, 2004)
Values joined by “and” are separate entries in the source; they are usually repeats but may differ in a detail not shown here. Equal values may be shown once. Inconclusive results and toxic doses are left out.

Test system: BDF1 mice, intracerebral L1210 leukemia, survival T/C
Assay: NCI In Vivo Anticancer Drug Screen. Data for tumor model L1210 Leukemia (intracerebral) in B6D2F1 (BDF1) mice
Details: higher = longer survival
Procedure, shortened: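 Transplantable tumour-bearing mice, compound-treated vs vehicle controls; read-out survival, reported as T/C ratio.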

[1] = endpoint: mean survival time, dose: 25.0 mg/kg/injection, schedule: Q01DX001 (ip), vehicle: other
[2] = endpoint: mean survival time, dose: 250.0 mg/kg/injection, schedule: Q01DX001 (ip), vehicle: other

## CCCCCCCCCCCCCCCC(=O)OCC1OC(n2ccc(N)nc2=O)C(O)C1O (stereo not drawn)
endpoint: mean survival time, dose: 5.0 mg/kg/injection, schedule: Q01DX005 (ip), vehicle: other
  T/C: 111 % of control (2×) and 117 % of control
endpoint: mean survival time, dose: 20.0 mg/kg/injection, schedule: Q01DX005 (ip), vehicle: other
  T/C: 154 % of control and 177 % of control and 180 % of control
[1]
  T/C: 110 % of control and 112 % of control and 116 % of control
endpoint: mean survival time, dose: 25.0 mg/kg/injection, schedule: Q01DX005 (ip), vehicle: other
  T/C: 171 % of control and 192 % of control and 202 % of control
endpoint: mean survival time, dose: 30.0 mg/kg/injection, schedule: Q01DX005 (ip), vehicle: other
  T/C: 169 % of control and 204 % of control and 242 % of control
endpoint: mean survival time, dose: 35.0 mg/kg/injection, schedule: Q01DX005 (ip), vehicle: other
  T/C: 201 % of control and 211 % of control and 214 % of control
endpoint: mean survival time, dose: 100.0 mg/kg/injection, schedule: Q01DX001 (ip), vehicle: other
  T/C: 166 % of control
endpoint: mean survival time, dose: 150.0 mg/kg/injection, schedule: Q01DX001 (ip), vehicle: other
  T/C: 173 % of control and 191 % of control and 213 % of control
endpoint: mean survival time, dose: 200.0 mg/kg/injection, schedule: Q01DX001 (ip), vehicle: other
  T/C: 170 % of control and 216 % of control and 242 % of control
[2]
  T/C: 161 % of control and 195 % of control and 222 % of control
endpoint: median survival time, dose: 25.0 mg/kg/injection, schedule: Q01DX009 (ip), vehicle: saline with Tween-80
  T/C: 295 % of control
endpoint: median survival time, dose: 50.0 mg/kg/injection, schedule: Q01DX009 (ip), vehicle: saline with Tween-80
  T/C: 106 % of control

## O=C(Nc1ccc(C2=NCCCN2)cc1)c1ccc(C(=O)Nc2ccc(C3=NCCCN3)cc2)cc1
endpoint: mean survival time, dose: 1.25 mg/kg/injection, schedule: Q01DX Z (ip), vehicle: carboxymethylcellulose (CMC)
  T/C: 107 % of control
endpoint: mean survival time, dose: 2.5 mg/kg/injection, schedule: Q01DX Z (ip), vehicle: carboxymethylcellulose (CMC)
  T/C: 107 % of control
endpoint: mean survival time, dose: 5.0 mg/kg/injection, schedule: Q01DX Z (ip), vehicle: carboxymethylcellulose (CMC)
  T/C: 114 % of control
endpoint: mean survival time, dose: 31.0 mg/kg/injection, schedule: Q01DX Z (ip), vehicle: carboxymethylcellulose (CMC)
  T/C: 104 % of control

## CCN(CC)c1ccc2cc3ccc(=[N+](CC)CC)cc-3oc2c1
endpoint: mean survival time, dose: 8.0 mg/kg/injection, schedule: Q01DX001 (ip), vehicle: saline
  T/C: 97 % of control
endpoint: mean survival time, dose: 13.0 mg/kg/injection, schedule: Q01DX001 (ip), vehicle: saline
  T/C: 96 % of control
endpoint: mean survival time, dose: 19.0 mg/kg/injection, schedule: Q01DX001 (ip), vehicle: saline
  T/C: 100 % of control

## O=NN(CCF)C(=O)NC1CS(=O)(=O)CS(=O)(=O)C1
endpoint: mean survival time, dose: 11.0 mg/kg/injection, schedule: Q01DX001 (ip), vehicle: other
  T/C: 113 % of control
endpoint: mean survival time, dose: 17.0 mg/kg/injection, schedule: Q01DX001 (ip), vehicle: other
  T/C: 117 % of control
[1]
  T/C: 120 % of control

## CN(C)N=Nc1ccc(C(N)=O)cc1
endpoint: median survival time, dose: 10.0 mg/kg/injection, schedule: Q01DX009 (ip), vehicle: saline with Tween-80
  T/C: 98 % of control
endpoint: median survival time, dose: 20.0 mg/kg/injection, schedule: Q01DX009 (ip), vehicle: saline with Tween-80
  T/C: 107 % of control
endpoint: median survival time, dose: 40.0 mg/kg/injection, schedule: Q01DX009 (ip), vehicle: saline with Tween-80
  T/C: 109 % of control

## O=NN(CCCl)C(=O)CCCCC(=O)N(CCCl)N=O
endpoint: mean survival time, dose: 44.0 mg/kg/injection, schedule: Q01DX001 (ip), vehicle: carboxymethylcellulose (CMC)
  T/C: 95 % of control
endpoint: mean survival time, dose: 67.0 mg/kg/injection, schedule: Q01DX001 (ip), vehicle: carboxymethylcellulose (CMC)
  T/C: 96 % of control
endpoint: mean survival time, dose: 100.0 mg/kg/injection, schedule: Q01DX001 (ip), vehicle: carboxymethylcellulose (CMC)
  T/C: 94 % of control

## C[C@@H](CN1CC(=O)NC(=O)C1)N1CC(=O)NC(=O)C1
endpoint: median survival time, dose: 8.0 mg/kg/injection, schedule: Q01DX009 (ip), vehicle: water
  T/C: 112 % of control
endpoint: median survival time, dose: 16.0 mg/kg/injection, schedule: Q01DX009 (ip), vehicle: water
  T/C: 121 % of control and 123 % of control
endpoint: median survival time, dose: 128.0 mg/kg/injection, schedule: Q01DX009 (ip), vehicle: water
  T/C: 123 % of control
endpoint: median survival time, dose: 256.0 mg/kg/injection, schedule: Q01DX009 (ip), vehicle: water
  T/C: 111 % of control
endpoint: median survival time, dose: 512.0 mg/kg/injection, schedule: Q01DX009 (ip), vehicle: water
  T/C: 113 % of control

## O=NN(CCCl)C(=O)N[C@H]1CCCC[C@H]1Cl
endpoint: mean survival time, dose: 8.0 mg/kg/injection, schedule: Q01DX001 (ip), vehicle: carboxymethylcellulose (CMC)
  T/C: 103 % of control
endpoint: mean survival time, dose: 12.0 mg/kg/injection, schedule: Q01DX001 (ip), vehicle: carboxymethylcellulose (CMC)
  T/C: 106 % of control and 110 % of control and 90 % of control
endpoint: mean survival time, dose: 18.0 mg/kg/injection, schedule: Q01DX001 (ip), vehicle: carboxymethylcellulose (CMC)
  T/C: 106 % of control
endpoint: mean survival time, dose: 40.0 mg/kg/injection, schedule: Q01DX001 (ip), vehicle: carboxymethylcellulose (CMC)
  T/C: 117 % of control
endpoint: mean survival time, dose: 51.0 mg/kg/injection, schedule: Q01DX001 (ip), vehicle: carboxymethylcellulose (CMC)
  T/C: 281 % of control and 306 % of control
endpoint: mean survival time, dose: 54.0 mg/kg/injection, schedule: Q01DX001 (ip), vehicle: carboxymethylcellulose (CMC)
  T/C: 198 % of control
endpoint: mean survival time, dose: 62.0 mg/kg/injection, schedule: Q01DX001 (ip), vehicle: carboxymethylcellulose (CMC)
  T/C: 159 % of control and 165 % of control and 176 % of control
endpoint: mean survival time, dose: 72.0 mg/kg/injection, schedule: Q01DX001 (ip), vehicle: carboxymethylcellulose (CMC)
  T/C: 251 % of control
endpoint: mean survival time, dose: 90.0 mg/kg/injection, schedule: Q01DX001 (ip), vehicle: carboxymethylcellulose (CMC)
  T/C: 209 % of control and 221 % of control and 270 % of control
endpoint: mean survival time, dose: 101.0 mg/kg/injection, schedule: Q01DX001 (ip), vehicle: carboxymethylcellulose (CMC)
  T/C: 413 % of control and 550 % of control
endpoint: mean survival time, dose: 108.0 mg/kg/injection, schedule: Q01DX001 (ip), vehicle: carboxymethylcellulose (CMC)
  T/C: 307 % of control
endpoint: mean survival time, dose: 135.0 mg/kg/injection, schedule: Q01DX001 (ip), vehicle: carboxymethylcellulose (CMC)
  T/C: 278 % of control and 305 % of control
endpoint: mean survival time, dose: 203.0 mg/kg/injection, schedule: Q01DX001 (ip), vehicle: carboxymethylcellulose (CMC)
  T/C: 119 % of control and 94 % of control

## CCCCn1cnc2c(SC3CCCC3)ncnc21
endpoint: mean survival time, dose: 125.0 mg/kg/injection, schedule: Q01DX001 (ip), vehicle: carboxymethylcellulose (CMC)
  T/C: 101 % of control
endpoint: mean survival time, dose: 250.0 mg/kg/injection, schedule: Q01DX001 (ip), vehicle: carboxymethylcellulose (CMC)
  T/C: 108 % of control
endpoint: mean survival time, dose: 500.0 mg/kg/injection, schedule: Q01DX001 (ip), vehicle: carboxymethylcellulose (CMC)
  T/C: 119 % of control

## C[n+]1ccc(Nc2ccc(NC(=O)c3ccc(Nc4cc[n+](C)c5ccc(N)cc45)cc3N)cc2)cc1
endpoint: mean survival time, dose: 1.0 mg/kg/injection, schedule: Q01DX009 (ip), vehicle: water
  T/C: 93 % of control
endpoint: mean survival time, dose: 2.0 mg/kg/injection, schedule: Q01DX009 (ip), vehicle: water
  T/C: 97 % of control
endpoint: mean survival time, dose: 4.0 mg/kg/injection, schedule: Q01DX009 (ip), vehicle: water
  T/C: 104 % of control
endpoint: mean survival time, dose: 8.0 mg/kg/injection, schedule: Q01DX009 (ip), vehicle: water
  T/C: 112 % of control

## CCOC(=O)C(CC(C)C)NC(=O)C(Cc1ccc(N(CCCl)CCCl)cc1)NC(C)=O (stereo not drawn)
endpoint: mean survival time, dose: 2.0 mg/kg/injection, schedule: Q01DX009 (ip), vehicle: DMSO
  T/C: 90 % of control
endpoint: mean survival time, dose: 4.0 mg/kg/injection, schedule: Q01DX009 (ip), vehicle: DMSO
  T/C: 92 % of control

## O=NN(CCCl)C(=O)N[C@@H]1CCC[C@@H](O)C1
endpoint: mean survival time, dose: 8.0 mg/kg/injection, schedule: Q01DX001 (ip), vehicle: saline with Tween-80
  T/C: 118 % of control
endpoint: mean survival time, dose: 20.0 mg/kg/injection, schedule: Q01DX001 (ip), vehicle: saline with Tween-80
  T/C: 361 % of control
endpoint: mean survival time, dose: 30.0 mg/kg/injection, schedule: Q01DX001 (ip), vehicle: saline with Tween-80
  T/C: 413 % of control
endpoint: mean survival time, dose: 44.0 mg/kg/injection, schedule: Q01DX001 (ip), vehicle: saline with Tween-80
  T/C: 260 % of control

## CCOC(=O)C1(NC(=O)N(CCCl)N=O)CCCC1
endpoint: mean survival time, dose: 74.0 mg/kg/injection, schedule: Q01DX001 (ip), vehicle: other
  T/C: 116 % of control
endpoint: mean survival time, dose: 108.0 mg/kg/injection, schedule: Q01DX001 (ip), vehicle: other
  T/C: 119 % of control
endpoint: mean survival time, dose: 110.0 mg/kg/injection, schedule: Q01DX001 (ip), vehicle: other
  T/C: 118 % of control
endpoint: mean survival time, dose: 168.0 mg/kg/injection, schedule: Q01DX001 (ip), vehicle: other
  T/C: 152 % of control
[2]
  T/C: 174 % of control and 275 % of control
endpoint: mean survival time, dose: 370.0 mg/kg/injection, schedule: Q01DX001 (ip), vehicle: other
  T/C: 152 % of control
endpoint: mean survival time, dose: 375.0 mg/kg/injection, schedule: Q01DX001 (ip), vehicle: other
  T/C: 124 % of control

## C#CCOCC(CCl)OC(=O)Nc1ccccc1 (stereo not drawn)
endpoint: mean survival time, dose: 25.0 mg/kg/injection, schedule: Q04DX003 (ip), vehicle: saline with Tween-80
  T/C: 100 % of control
endpoint: mean survival time, dose: 50.0 mg/kg/injection, schedule: Q04DX003 (ip), vehicle: saline with Tween-80
  T/C: 115 % of control
endpoint: mean survival time, dose: 100.0 mg/kg/injection, schedule: Q04DX003 (ip), vehicle: saline with Tween-80
  T/C: 105 % of control
endpoint: mean survival time, dose: 200.0 mg/kg/injection, schedule: Q04DX003 (ip), vehicle: saline with Tween-80
  T/C: 109 % of control
endpoint: mean survival time, dose: 400.0 mg/kg/injection, schedule: Q04DX003 (ip), vehicle: saline with Tween-80
  T/C: 105 % of control

## CSc1ncnc2c1ncn2C1OC(CO)C(O)C1O (stereo not drawn)
endpoint: mean survival time, dose: 25.0 mg/kg/injection, schedule: Q01DX Z (ip), vehicle: saline
  T/C: 113 % of control
endpoint: mean survival time, dose: 50.0 mg/kg/injection, schedule: Q01DX Z (ip), vehicle: saline
  T/C: 92 % of control
